Laboratory results as given in PubChem BioAssay AID1996.
≈ marks a conversion by molar mass, not a printed value.

Conditions: buffer; pH 7.4; 200.0 µM

| Structure (SMILES) | solubility kinetic |
| --- | --- |
| O=C(CN1C(=O)C2C3CCC(C3)C2C1=O)OCC(=O)c1ccc(Br)cc1 (centres undefined) | > 63 µg/mL |
| Cn1c(=O)c([N+](=O)[O-])c(NCc2ccc3c(c2)OCO3)c2ccccc21 | 0.9 µg/mL (≈ 2.55 µM) |
| Fc1ccccc1NC(=S)NC1CCCC1 | 35.2 µg/mL (≈ 148 µM) |
| CCOC(=O)C1=C(C)N(C)C(=O)NC1c1c(O)ccc2ccccc12 (centres undefined) | > 51.1 µg/mL |
| O=C(NCc1cccnc1)Nc1cccc([N+](=O)[O-])c1 | > 40.8 µg/mL |
| CSCC(CO)NS(=O)(=O)c1ccc(C)cc1 (centres undefined) | > 41.3 µg/mL |
| COc1ccc(CC(=O)NC2CCSc3ccccc32)cc1OC (centres undefined) | 0.7 µg/mL (≈ 2.04 µM) |
| Cc1ccc(O)c(NC(=O)c2onc(C)c2Cl)c1 | 6.2 µg/mL (≈ 23.2 µM) |
| COc1ccc(NC(=O)Nc2c(C)noc2-c2ccccc2)cc1 | 7.5 µg/mL (≈ 23.2 µM) |
| CC(C)c1ccc(NC(=S)NCc2ccc3c(c2)OCO3)cc1 | 4.9 µg/mL (≈ 14.9 µM) |
| O=C(COC(=O)c1cc(S(=O)(=O)N2CCOCC2)ccc1F)NCCc1ccc(F)cc1 | > 70.3 µg/mL |
| NC(=O)CSc1nccn1Cc1ccc2c(c1)OCO2 | > 43.7 µg/mL |
| CCCC(=O)Oc1ccc(-c2nccc(C(OC)OC)n2)cc1 | 46.1 µg/mL (≈ 146 µM) |
| Cc1ccc(SCC(=O)NC2CC2)cc1 | > 33.2 µg/mL |
| CNc1c(NC(=O)C2CCC(C)CC2)c(=O)oc2ccccc12 (centres undefined) | 1.8 µg/mL (≈ 5.73 µM) |
| O=C(CN1C(=O)CNC1=O)Nc1cc(Cl)cc(Cl)c1 | > 45.3 µg/mL |
| O=C(Nc1ccc2c(c1)C(=O)OC2)c1ccc(F)cc1F | 2.3 µg/mL (≈ 7.95 µM) |
| Cc1ccc(Sc2cnccc2C#N)cc1 | 15.4 µg/mL (≈ 68.1 µM) |
| Cc1c(O)nc(SC2CC(=O)N(c3cc(Cl)cc(Cl)c3)C2=O)[nH]c1=O (centres undefined) | > 60 µg/mL |
| Cc1cc(NC(=O)COC(=O)C(C)Oc2ccc(Cl)cc2Cl)no1 (centres undefined) | 42.2 µg/mL (≈ 113 µM) |

| Structure (SMILES) | solubility kinetic |
| --- | --- |
| C/C(=N\NC(=O)c1ccc(Cl)cc1)c1ccccn1 | > 41.1 µg/mL |
| Cc1cc(C)cc(OCCN2CCOCC2)c1 | 22.5 µg/mL (≈ 95.6 µM) |
| CC(C)C1Oc2ccccc2N(CC(=O)NC2CCCCC2)C1=O (centres undefined) | > 49.6 µg/mL |
| CCCn1c(=O)c2c(nc3n2CCS3)n(C)c1=O | > 39.9 µg/mL |
| Cc1cccc(C(=O)NCC(=O)OCC(=O)c2ccc(Cl)s2)c1 | > 52.8 µg/mL |
| Cc1ccc(COC(=O)NCc2cccnc2)cc1 | 35.7 µg/mL (≈ 139 µM) |
| CC(=O)N1CCN(c2cc(N3CCCC3)c(F)cc2[N+](=O)[O-])CC1 | > 50.5 µg/mL |
| CCc1nc2ccc(C(=O)N(C)CC(=O)Nc3ccccc3C(F)(F)F)cc2nc1CC | 27.6 µg/mL (≈ 62.1 µM) |
| COc1ccc(N/C(N)=N/c2nc(C)cc(=O)[nH]2)cc1 | 6.8 µg/mL (≈ 24.9 µM) |
| Cn1c(=O)oc2cc(NC(=O)CCl)ccc21 | 24.2 µg/mL (≈ 101 µM) |
| C=CCOc1c(Cl)cc(CNc2nccs2)cc1OC | 38.1 µg/mL (≈ 123 µM) |
| COc1ccc(N2C(=O)NC3CC2(C)Oc2ccccc23)cc1 (centres undefined) | 44.4 µg/mL (≈ 143 µM) |
| CN1C(=O)NC(c2cccc([N+](=O)[O-])c2)C2=C1CCCC2=O (centres undefined) | > 45.2 µg/mL |
| COc1c(C(=O)Nc2nccs2)ccc2ccccc12 | 17 µg/mL (≈ 59.8 µM) |
| CCOC(=O)C1CCCN(C(=O)CSc2nnc3nc(C)cc(C)n23)C1 (centres undefined) | > 56.6 µg/mL |
| CC(CCc1ccccc1)NCCC#N.Cl (centres undefined) | > 35.8 µg/mL |
| CCCn1cc(C(=O)OCC)c(=O)c2cc(F)c(F)cc21 | 34.9 µg/mL (≈ 118 µM) |
| O=c1cc(/N=C/c2coc3cc(Br)ccc3c2=O)[nH]c(=S)[nH]1 | 3 µg/mL (≈ 7.93 µM) |
| Cc1ccc2[nH]c(C)c(CCNC(=O)c3c(N)no[n+]3[O-])c2c1 | 5 µg/mL (≈ 15.9 µM) |

Other lines, results leading:

| solubility kinetic | Structure (SMILES) |
| --- | --- |
| < 0.4 µg/mL | Oc1c(Cl)cc(Cl)cc1C1Nc2ccccc2-n2cccc21 (centres undefined) |
| 29.8 µg/mL (≈ 101 µM) | COc1ccccc1C1CCN(Cc2ccc(C)cc2)CC1 |
| 15.6 µg/mL (≈ 53.2 µM) | CCN(Cc1ccccc1)S(=O)(=O)c1ccc(F)cc1 |
| 24.9 µg/mL (≈ 97 µM) | Cc1nc2ccccc2n1Cc1ccc(Cl)cc1 |
| 6.7 µg/mL (≈ 18.8 µM) | COc1ccc([N+](=O)[O-])cc1NC(=O)C1(c2ccccc2)CCOCC1 |
| 5.3 µg/mL (≈ 16.1 µM) | O=C(NCc1ccc(Cl)cc1)c1ccc(N2CCCC2=O)cc1 |
| > 54.7 µg/mL | O=S(=O)(NC1CCN(Cc2ccccc2)CC1)c1ccc(Cl)cc1 |
| > 39 µg/mL | O=C(NCCc1ccccc1)c1ccccc1Cl |
| 21.6 µg/mL (≈ 55.8 µM) | Cc1ccc2c(COC(=O)CNS(=O)(=O)c3ccccc3)cc(=O)oc2c1 |
| 37.4 µg/mL (≈ 124 µM) | CSc1cccc(NC(C)C(=O)NCc2ccccc2)c1 (centres undefined) |
| > 60.3 µg/mL | Cl.ClC(CCN1CCN(Cc2ccccc2)CC1)c1ccccc1 (centres undefined) |
| > 43.6 µg/mL | CN(Cc1ccccc1)C(=S)NC(=O)c1cccs1 |
| 34 µg/mL (≈ 135 µM) | Cc1oncc1C(=O)Nc1cccc2ccccc12 |
| 5.3 µg/mL (≈ 13.3 µM) | COCC(C)NC(=O)c1ccc2nc(-c3ccccc3)c(-c3ccccc3)nc2c1 (centres undefined) |
| > 49 µg/mL | CC(Sc1nc2ccc(C(=O)c3ccccc3)cc2[nH]1)C(=O)O (centres undefined) |
| 34.3 µg/mL | CN(C)CC(c1ccccc1)c1ccccc1.Cl |
| < 0.3 µg/mL | O=[N+]([O-])c1cccnc1Oc1ccc(OCc2ccccc2)cc1 |
| 42.6 µg/mL (≈ 126 µM) | COCCCn1c(=O)c2ccccc2n(Cc2cccc(C)c2)c1=O |
| > 44.3 µg/mL | O=C1c2cccc3c2N(CCC3)C(=O)C1(F)c1ccccc1 (centres undefined) |
| > 45.4 µg/mL | O=C(CSCCOc1ccccc1)NCc1ccncc1 |
